Experiments:
[1] = test system: KATP channels; experiment: inhibition of KATP channels and their ATP/PIP sensitivity; assay type: biochemical; details: for effect on KATP channels: via allosteric interactions with phospholipids of the lipid membrane
Experimental: EGCG and ECG with gallate ester groups inhibited KATP channels via allosteric interactions with phospholipids of the lipid membrane. But the effective EGCG concentration was more than 10 μM. Further, EGCG is the only green tea epicatechin that decreases the sensitivity of ATP and PIP to the KATP channel. By this mechanism, we concluded that EGCG caused decrease in insulin secretion in response to glucose in the β-cell of pancreas. Patients with diabetes or people with a risk factor for diabetes should be careful because the effective concentration of EGCG for this mechanism could be 1-10 μM, which is an achievable concentration when a person drinks 2-8 cups of green tea while fasting.

[2] = test system: cultured adipocytes, myocytes and hepatocytes; experiment: glucose uptake ability at cultured cells (FIG. 3); assay type: cell-based; details: for normal glucose uptake mechanism after a meal: hepatocytes, adipocytes and muscle cells
Excerpt: We can see that basal glucose uptake ability and insulin stimulated glucose uptake ability decreased based on the given EGCG concentration.

[3] = intraperitoneal glucose tolerance test after intravenous epicatechin (FIG. 1); assay type: in vivo; details: rats; epicatechin intravenously 30 min before glucose loading 2 g/kg
Experimental: Each epicatechin was injected intravenously 30 min before the glucose loading.

[4] = adipocytes, myocytes and hepatocytes, based on the given EGCG concentration

Row | Structure (SMILES) | effective concentration for KATP channel inhibition [1] | sensitivity of ATP and PIP to the KATP channel [1] | effective concentration for decreasing ATP and PIP sensitivity of the KATP channel ([1]; stated as 'could be') | effect on KATP channels [1] | blood EGCG level at which the glucose uptake inhibition can occur [2] | basal glucose uptake ability [2, 4] | insulin stimulated glucose uptake ability [2, 4] | normal glucose uptake mechanism after a meal [2] | blood glucose concentration during intraperitoneal glucose tolerance test [3]
1 | O=C(O[C@@H]1Cc2c(O)cc(O)cc2O[C@@H]1c1cc(O)c(O)c(O)c1)c1cc(O)c(O)c(O)c1 [EGCG, (−)-epigallocatechin-3-gallate] | more than 10 μM | decreases | 1 to 10 µM | inhibited | lower than 10 μM | decreased | decreased | inhibited | High blood glucose level
2 | O=C(O[C@@H]1Cc2c(O)cc(O)cc2O[C@@H]1c1ccc(O)c(O)c1)c1cc(O)c(O)c(O)c1 [ECG, (−)-epicatechin-3-gallate] |  |  |  | inhibited |  |  |  | inhibited | High blood glucose level

From patent US20100178365A1, “EPICATECHIN DEFICIENT GREEN TEA” (priority 2007, published 2010)
